Results from patent publication US4808588A, “Heterocyclic ureas and carbonates useful as pharmaceuticals” (Beecham Group, p.l.c., priority 1986, dated 1989).

These compounds were tested on von Bezold-Jarisch reflex evoked by 5-HT (assay: Antagonism of the von Bezold-Jarisch reflex evoked by 5-HT in the anaesthetised rat). Conditions: anaesthetised male rats, compound intravenous, 5-HT usually 6 μg/kg i.v., heart rate changes, read-out: ED50 (concentration required to reduce the 5-HT-evoked response to 50% of the control response).
Format: in vivo
Description: Antagonism of the von Bezold-Jarisch reflex
The compounds were evaluated for antagonism of the von Bezold-Jarisch reflex evoked by 5-HT in the anaesthetised rat according to the following method:
Male rats 250-350 g, were anaesthetised with urethane (1.25 g/kg intraperitoneally) and blood pressure and heart rate recorded as described by Fozard J. R. et al., J. Cardiovasc. Pharmacol. 2, 229-245 (1980). A submaximal dose of 5-HT (usually 6 μg/kg) was given repeatedly by the intravenous route and changes in heart rate quantified. Compounds were given intravenously and the concentration required to reduce the 5-HT-evoked response to 50% of the control response (ED50) was then determined.

Compound	ED50 [µg/kg]
COc1ncccc1NC(=O)N[C@H]1C[C@H]2CC[C@@H](C1)N2C [Compound 1, (endo)-N-(8-Methyl-8-azabicyclo[3.2.1]oct-3-yl)-N'-(2-methoxy-pyrid-3-yl)urea]	7.5
COc1ccsc1NC(=O)N[C@H]1C[C@H]2CC[C@@H](C1)N2C [Compound 3, (endo)-N-(8-Methyl-8-azabicyclo[3,2,1]oct-3-yl)-N'-(3-methoxythiophen-2-yl)urea]	1
COc1cscc1NC(=O)N[C@H]1C[C@H]2CC[C@@H](C1)N2C [Compound 5, (endo)-N-(8-Methyl-8-azabicyclo[3,2,1]oct-3-yl)-N'-(4-methoxythiophen-3-yl)urea]	2
